# Key:
# [1] = Degreasing of steel sheets with an impregnated cotton pad; parameters: key to degreasing grade: Grade=1: visible residual presence of a thin greasy film; Grade=2: visible residual presence of small greasy spots; Grade=3: visible absence of fatty substance (degreased sheet); settings: for OVERALL GRADE (/10): from the number of the 9 fatty substances with grade 3
# From the text: Steel sheets covered with a thin, uniform film of different greases, lubricants or straight cutting oils commonly used in the metal-processing industry are degreased.
# The performances of these 7 compositions are compared for 9 commercial greases and oils of different chemical mixtures.
# For the purpose of the evaluation, a cotton pad is impregnated with the test composition and then this cotton pad is brought into contact with a thin and uniform film of fatty substances deposited on the surface of a steel sheet. This operation is repeated twice. The steel sheet is subsequently rinsed with cold water, so as to remove the solvent. The degreasing effect is subsequently graded as follows:
# Grade=1: visible residual presence of a thin greasy film,
# Grade=2: visible residual presence of small greasy spots,
# Grade=3: visible absence of fatty substance (degreased sheet).
# For each of Compositions 1 to 7, an “overall grade” is assigned to the function of the number of fatty substances for which the composition in question has not made it possible to achieve the grade of 3. This overall grade, with a maximum value of 10, is assigned in the following way:
# For each Composition 1 to 7, the grade obtained a) for the specific degreasing of each of the fatty substances FS1 to FS9 deposited (grade from 1 to 3) and b) overall, as degreasing composition (grades from 6/10 to 10/10) is thus taken up in the table below.
# [2] = Flammability / flashpoint of the compositions; type: physicochemical
# [3] = compulsory labelings R51/R53; cited from earlier work
# [4] = Risks of harmfulness for the aquatic environment / bioaccumulation; parameters: key: −=harmful demonstrated; +=slight risk; ++=very slight risks
# From the text: For each of Compositions A to E, the characteristics of odor (“ODOR”), of stability at alkaline pH, i.e. at a pH of 9 (“STAB.”) and of risks of harmfulness in terms of protection of the aquatic environment/bioaccumulation (“BIO.”) are taken up in the table below according to the following notation: […]
# man = settings: previously described advantages; cited from earlier work
# [5] = system: aquatic organisms, such as bacteria, freshwater algae, daphnia and freshwater fish; assay: Toxicity for aquatic organisms
# [6] = Aerobic inherent biodegradability, OECD 302 B (Zahn-Wellens EMPA Test); settings: at 28 days
# From the text: The biodegradability is here measured according to the process, hereinafter denoted “OECD 302 B”, recommended by the OECD under the following number and following title: No. 302 B—Inherent Biodegradability: Zahn—Wellens EMPA Test.
# [7] = Ready biodegradability, OECD No. 301 A (DOC Die-away Test); settings: at 28 days
# [8] = FS 2 = mixture of petroleum mineral oils
# [9] = FS 4 = molybdenum disulfide grease
# [10] = FS 5 = mixture of mineral oil, of paraffinic hydrocarbons and of graphite
# [11] = FS 6 = polydimethylsiloxane oil
# [12] = FS 7 = mutifraction oily mixture
# [13] = FS 8 = biostable polyvalent microemulsion
# [14] = FS 9 = nonchlorinated special lubricant
Molecule,degreasing grade ([1]; FS 1 = paraffinic mineral oil),"degreasing grade [1, 8]",degreasing grade ([1]; FS 3 = food-grade mineral oil),"degreasing grade [1, 9]","degreasing grade [1, 10]","degreasing grade [1, 11]","degreasing grade [1, 12]","degreasing grade [1, 13]","degreasing grade [1, 14]",OVERALL GRADE (/10) [1],flashpoint [2] [°C],toxicity for the environment [3],"BIO. (risks of harmfulness, protection of the aquatic environment/bioaccumulation) [4]",irritant nature and toxicity to man (man),toxicity for aquatic organisms [5],aerobic inherent biodegradability [6] [%],ready biodegradability [7] [%]
"C=C(C)[C@H]1CC=C(C)CC1 [Composition 3, dipentene]",3,3,3,3,3,3,3,2,3,9 /10,48,,,,,,
"ClC=C(Cl)Cl [Composition 1, trichloroethylene]",3,3,3,3,3,3,3,3,3,10 /10,,a certain toxicity,,,,,
"CCOC(=O)C(C)O (stereo not shown) [Composition 4, ethyl lactate]",3,3,3,3,2,3,3,2,3,8 /10,46,,,,,,
"2,2,4-trimethyl-1,3-pentanediol monoisobutyrate [Composition A]",,,,,,,,,,,,,−,,,,
"CO[C@H]1CO[C@H]2[C@@H]1OC[C@H]2OC [Composition 5, dimethyl isosorbide]",3,3,2,3,2,2,3,2,3,6 /10,120,,++,absence of irritant nature and of toxicity to man,absence of toxicity for aquatic organisms,~36,~25
"ClCCl [Composition 2, dichloromethane]",3,3,3,3,3,3,3,3,3,10 /10,,a certain toxicity,,,,,

# Source: patent US8080115B2, “Method for the surface treatment of a metallic or fibrous material” (priority 2005, dated 2011)
